This data set in a line: Solvent solubility of the crown ether compounds in the coating solution. It counts as physicochemical. As to conditions: ethanol coating solution.

Description: We prepared a coating solution for performing the perovskite encapsulating method. 18-crown-6-ether (hereafter, referred to as a raw material) was prepared as the crown ether. A compound (hereinafter, referred to as di-benzo) in which only two benzene rings are bonded to the crown ether was prepared as a comparative group. […] The di-benzo was dissolved in ethanol at 0.01 to 0.03% by weight. […] Thus, resulting solutions were prepared.

`c1ccc2c(c1)OCCOCCOc1ccccc1OCCOCCO2` [di-benzo] returned a solvent solubility of at most 0.03 % by weight.

The values above are taken from patent publication US12310236B2, “Encapsulant preventing lead leakage on perovskite, method for encapsulating perovskite to prevent lead leakage and perovskite photosensitive device comprising the same” (PUKYONG NATIONAL UNIVERSITY INDUSTRY—UNIVERSITY COOPERATION …, priority 2023, dated 2025).
